Measurements taken from patent US12059400B2, “Medical compound” (VERA SALUS RICERCA S.R.L., priority 2017, dated 2024).

Columns and labels:
[1] = tested on: human melanoma cells (A375); test: Cell cycle progression, propidium iodide method, cytofluorimeter; format: cell-based; conditions: for halt of A375 tumour cells in S and/or G2 of the cell cycle: 24 hrs, at the respective anti-proliferative IC50s, FIG. 19
Description: (§1) Progression through the tumour cell cycle was assessed by the propidium iodide method and quantification of the cell DNA content with a cytofluorimeter. Briefly, after treatment (in duplicate) with the test compounds (24 hrs), the tumour cells were washed (with PBS), detached with trypsin-EDTA and pelleted by centrifugation (125 g for 6 min). The cells were then fixed in ethanol (70%) and stored in the freezer (−20° C.) for 1-3 days. After further washing (PBS) and treatment with RNAse (50 ug/ml), the cells were contacted (on ice in the dark; 30 min) with propidium iodide (50 μg/ml). FL2 and FL3 cytofluorimeter readings analysed approximately 50,000 cells (1 μl/second) per sample. Statistical analysis and graphical representation were performed by using t-tests and preset Excel property files.

[2] = tested on: human colon carcinoma cells (HCT116); test: as above; format: cell-based; conditions: for halt of HCT116 tumour cells in S of the cell cycle: 24 hrs, at the respective anti-proliferative IC50s, FIG. 20
Description: as §1

[3] = tested on: human colon carcinoma cells (HCT116); test: Intracellular ROS levels, DCFH2-DA probe; format: cell-based; conditions: for intracellular ROS levels in HCT116 cells: 2 hrs of treatment, at the respective anti-proliferative IC50s, DCF fluorescence in A.U., FIG. 22 left
Description: Intracellular ROS levels were measured in tumour cells by using the probe 2,7-dichlorodihydrofluorescein diacetate (DCFH2-DA) and a fluorescence spectrophotometer. DCFH2-DA diffuses readily through the cell membrane into the cytosolic space of the cell where it is hydrolyzed by intracellular esterases into the non-permeable DCFH2 product. DCFH2 oxidation by intracellular ROS (mainly H2O2, HO·, ROO·, NO· and ONOO) results in the production of intracellular fluorescent DCF, whose concentration is directly proportional to the levels of ROS in the cell. […] All the experiments were repeated at least 3 times. Data analysis was carried out with GraphPad Prism 6 for graphical representation and statistical processing (1-way ANOVA test).

melanoma, A375 = test: Apoptosis, acridine orange/ethidium bromide method; format: cell-based, human; conditions: 2 hrs; Compound 2 40 μM, 5 40 μM, 4 40 μM, 3 60 μM, 1 80 μM; FIG. 18
Text: Tumour cell apoptosis was quantified by the acridine orange/ethidium bromide (AO/EB) method and by using a fluorescence microscope and image-J. In short, after treatment with the test compounds (2 hrs), the tumour cells were placed in contact with an AO/EB solution (in sterile H2O) and photographed with a fluorescence microscope (Leica) by using the ≥20× objective (so as to distinguish the morphology of cell nuclei). In this way, the living cells are labelled with AO and emit fluorescence in the green channel, while the necrotic cells, which have undergone the rupture of the plasma membrane, are permeable to EB and emit fluorescence in the red channel. In contrast, apoptotic cells are permeable to both AO and EB, and as a consequence of the colocalization of the two fluorescences appear yellow-orange when the two individual microscope-acquired fluorescences are superimposed by using the editing program Image J. The objective quantification of the colocalization areas (apoptotic cells) and the non-colocalization areas (living or necrotic cells) was carried out on a number of cells ≥300/condition through the use of Apoptosis Correlator (ImageJ plug-in) and shown as the percentage of living (green), necrotic (red) or apoptotic (yellow-orange) tumour cells. Data analysis was carried out by using GraphPad Prism 6 for graphical representation and statistical processing (2-way ANOVA test).

[4] = tested on: human bladder carcinoma cells (T24); test: Cell proliferation, crystal violet method; format: cell-based; conditions: for T24 cell growth vs vehicle control: 80 μM, FIG. 10a, 10b; for IC50: crystal violet, spectrophotometer, read-out: IC50 anti-proliferative effect, BC (T24)
Description: (§2) The compound according to the invention, and in particular the synthetic quercetin derivatives described and illustrated herein were investigated in vitro by using human tumour cells and assessing their impact on the tumour proliferative capacity, with regard to the tumours described above. In particular, the following human tumour cell lines were assessed experimentally: 1) HCT116, colon adenocarcinoma cells; 2) H1299, lung adenocarcinoma cells; 3) A375, melanoma cells, and 4) A431, squamous skin cell carcinoma; 5) 786-0, renal carcinoma cells; 6) PC3, prostate carcinoma cells; 7) BT549, mammary carcinoma cells; 8) CAL27, tongue carcinoma cells (belonging to the head-and-neck carcinomas); 9) HepG2, hepatocellular carcinoma cells; 10) PANC-1, pancreas carcinoma cells; 11) T24, bladder carcinoma cells; 12) OVCAR-3, ovarian carcinoma cells. In addition, a normal human cell line, WS1 (skin fibroblasts) was also treated with the novel synthetic compounds. Cell proliferation was quantified by the crystal violet method with a spectrophotometer. In short, after acquiring serial images (0, 24 and 48 hrs) with the EVOS XL Cell Imaging System microscope (Thermo Fisher Scientific), the cells imaged at 48 hrs were fixed with paraformaldehyde (4%) and stained with Crystal Violet (1%). Then, the specific absorbance (λ=590 nm) at 48 hrs was measured with a spectrophotometer (Infinite®200 PRO, Tecan). Data analysis was carried out by using ad-hoc Excel files for graphical representation and statistical processing (t-test). Moreover, the results obtained with Crystal Violet were confirmed by using another cell proliferation assessment method based on the real time cellular analyzer XCELLigence RTCA DP (ACEA Biosciences, Inc.). This tool allows cell growth to be monitored from electrical impedance-derived quantitative values (the so-called Cell Index) measured by tiny electrodes located at the base of the culture wells. Proliferation is monitored for several days (5-7) by setting a Cell Index per minute measure on the instrument. The data are analysed by processing various parameters calculated by the dedicated software, such as the cell duplication time, the slope and the Max Cell Index. […] Cell proliferation was quantitated spectrophotometrically by the crystal violet method.

[5] = tested on: human renal carcinoma cells (786-0); test: Cell proliferation, crystal violet method; format: cell-based; conditions: for 786-0 cell growth vs vehicle control: 80 μM, FIG. 4a, 4b; for IC50: crystal violet, spectrophotometer, read-out: IC50 anti-proliferative effect, RCC - (786-O)
Description: as §2

[6] = tested on: human prostate carcinoma cells (PC3); test: Cell proliferation, crystal violet method; format: cell-based; conditions: for PC3 cell growth vs vehicle control: 80 μM, FIG. 5a, 5b; for IC50: crystal violet, spectrophotometer, read-out: IC50 anti-proliferative effect, PC - (PC3)
Description: as §2

[7] = tested on: human pancreatic carcinoma cells (PANC-1); test: Cell proliferation, crystal violet method; format: cell-based; conditions: for PANC-1 cell growth vs vehicle control: 80 μM, FIG. 9a, 9b; for IC50: crystal violet, spectrophotometer, read-out: IC50 anti-proliferative effect, PCC (PANC-1)
Description: as §2

IC50 [4] | IC50 [5] | IC50 [6] | IC50 [7] | Substance | halt of A375 tumour cells in S and/or G2 of the cell cycle [1] | halt of HCT116 tumour cells in S of the cell cycle [2] | intracellular ROS levels in HCT116 cells [3] | induction of apoptosis in A375 (melanoma, A375) | T24 cell growth vs vehicle control [4] | 786-0 cell growth vs vehicle control [5] | PC3 cell growth vs vehicle control [6] | PANC-1 cell growth vs vehicle control [7] | effect on the A375 cell cycle in presence of ROS scavenger NAC ([1]; Compound at its anti-proliferative IC50 + N-Acetyl Cysteine 10 mM, FIG. 21 right) | effect on the HCT116 cell cycle in presence of ROS scavenger NAC ([2]; Compound at its anti-proliferative IC50 + N-Acetyl Cysteine 10 mM, FIG. 21 left) | intracellular ROS levels in HCT116 cells after pretreatment with NAC ([3]; pretreatment with N-Acetyl-L-Cysteine 10 mM, FIG. 22 right)
44.9 µM | 65.4 µM | 46.2 µM | 156 µM | 2-(3,4-Dihydroxyphenyl)-3-hexadecyloxy-5,7-dihydroxy-4H-chromen-4-one [Compound 3] | exception | significantly halt | significantly raise | induced apoptosis | significantly inhibit | significantly inhibit | significantly inhibit | significantly inhibit |  |  | 
45.5 µM | 41.2 µM | 34.9 µM | 69.6 µM | 2-(3,4-dihydroxyphenyl)-5,7-dihydroxy-4-oxo-4H-chromen-3-yl acetate [Compound 4] | significantly halt | significantly halt |  | induced apoptosis | significantly inhibit | significantly inhibit | significantly inhibit | significantly inhibit |  |  | 
50.5 µM | 32.6 µM | 56.9 µM | 69.4 µM | 2-(3,4-dihydroxyphenyl)-5,7-dihydroxy-4-oxo-4H-chromen-3-yl palmitate [Compound 5] | significantly halt |  |  | induced apoptosis | significantly inhibit | significantly inhibit | significantly inhibit | significantly inhibit |  |  | 
> 1000 µM | 149 µM | 79.3 µM | > 1000 µM | 2-(3,4-Dihydroxyphenyl)-3-ethoxy-5,7-dihydroxy-4H-chromen-4-one [Compound 1] | significantly halt | significantly halt | significantly raise | induced apoptosis |  | significantly inhibit | significantly inhibit |  | partly mediated by ROS | partly mediated by ROS | blocked
66.8 µM | 72.5 µM | 309 µM | 95.4 µM | 2-(3,4-Dihydroxyphenyl)-3-hexyloxy-5,7-dihydroxy-4H-chromen-4-one [Compound 2] | significantly halt |  | significantly raise | induced apoptosis | significantly inhibit | significantly inhibit |  | significantly inhibit |  |  | 
